Source: patent publication US8569336B2, “Compounds for the treatment of inflammatory disorders” (priority 2008, dated 2013)

Biological target: T1, purified catalytic domain of recombinant human TACE (rhTACEc) (Homo sapiens, UniProt P78536, N452Q/S266A)
T1 construct: 6xHis (C); made in house; host or cells: baculovirus/Hi5 insect cells
Assay: TACE kinetic assay: cleavage of internally quenched peptide substrate TNF-FRET 2 (Ki)
Assay type: biochemical
Conditions: TNF-FRET 2 substrate, read-out: Ki

T1 sequence (P78536 215-477 S266A/N452Q): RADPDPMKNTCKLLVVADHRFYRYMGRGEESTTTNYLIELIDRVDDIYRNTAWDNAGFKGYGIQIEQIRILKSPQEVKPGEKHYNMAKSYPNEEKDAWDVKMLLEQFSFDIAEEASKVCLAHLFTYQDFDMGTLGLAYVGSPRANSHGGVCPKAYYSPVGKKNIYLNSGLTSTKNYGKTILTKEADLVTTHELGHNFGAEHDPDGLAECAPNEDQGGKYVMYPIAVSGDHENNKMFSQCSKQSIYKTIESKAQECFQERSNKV

Compound | Ki [nM]
COc1ccc2c(c1F)C(=O)N(C[C@@]1(c3cc4nc(N5CCCNC5=O)ccc4o3)NC(=O)NC1=O)C2 [Compound 2146] | 0.974
COc1ccc2c(c1)C(=O)N(C[C@@]1(c3cc4cnc(-c5cn[nH]c5)cc4o3)NC(=O)NC1=O)C2 [Compound 2286] | 0.566
COc1ccc2c(c1F)C(=O)N(C[C@@]1(c3cc4cc(C5(C)NC(=O)NC5=O)c(F)cc4o3)NC(=O)NC1=O)C2 (stereo partly drawn) [Compound 1316] | 1.02
COc1ccc2c(c1)C(=O)N(C[C@@]1(c3cc4nc(NS(=O)(=O)C5CC5)ccc4o3)NC(=O)NC1=O)C2 [Compound 1938] | 0.58
COc1ccc2c(c1)C(=O)N(C[C@@]1(c3cc4cc(-c5ccccc5O)ncc4o3)NC(=O)NC1=O)C2 [Compound 2241] | 1.19
COc1ccc2c(c1)C(=O)N(C[C@@]1(c3cc4nc(-c5ccncc5)ccc4o3)NC(=O)NC1=O)C2 [Compound 2110] | 0.62
COc1ccc2c(c1F)C(=O)N(C[C@@]1(c3cc4ncc(F)cc4o3)NC(=O)NC1=O)C2 [Compound 1311] | 1.18
CCN1CCN(c2ccc3oc([C@]4(CN5Cc6ccc(OC)cc6C5=O)NC(=O)NC4=O)cc3n2)CC1 [Compound 2123] | 0.807
COc1ccc2c(c1)C(=O)N(C[C@@]1(c3cc4c(C)nc(C)cc4o3)NC(=O)NC1=O)C2 [Compound 2257] | 0.53
COc1ccc2c(c1F)C(=O)N(C[C@@]1(c3cc4nc(C)c(F)cc4o3)NC(=O)NC1=O)C2 [Compound 1312] | 0.74
COc1ccc2c(c1)C(=O)N(C[C@@]1(c3cc4cnc(C)nc4o3)NC(=O)NC1=O)C2 [Compound 2309] | 0.594
COc1ccc2c(c1)C(=O)N(C[C@@]1(c3cc4cc(-c5ccccc5F)ncc4o3)NC(=O)NC1=O)C2 [Compound 2240] | 0.714
COc1ccc2c(c1)C(=O)N(C[C@@]1(c3cc4cc(-c5ccncc5)cnc4o3)NC(=O)NC1=O)C2 [Compound 2255] | 0.523
COc1ccc2c(c1)C(=O)N(C[C@@]1(c3cc4nc(NS(=O)(=O)C5CC5)ccc4o3)NC(=O)NC1=O)C2 [Compound 2318] | 0.579

Now those with a lower Ki, led by results:

Ki [nM] | Compound
0.5 | COc1ccc2c(c1F)C(=O)N(C[C@@]1(c3cc4nc(N5CCN(C)CC5)ccc4o3)NC(=O)NC1=O)C2 [Compound 2125]
0.5 | COc1ccc2c(c1)C(=O)N(C[C@@]1(c3cc4c(C)nccc4o3)NC(=O)NC1=O)C2 [Compound 2284]
0.5 | CCOC(=O)C1CCCN(c2ccc3oc([C@]4(CN5Cc6ccc(OC)cc6C5=O)NC(=O)NC4=O)cc3n2)C1 (stereo partly drawn) [Compound 1516]
0.49 | COc1ccc2c(c1F)C(=O)N(C[C@@]1(c3cc4nc(C5(C)NC(=O)NC5=O)ccc4o3)NC(=O)NC1=O)C2 (mixture of isomers) [Compound 1901]
0.456 | COc1ccc2c(c1)C(=O)N(C[C@@]1(c3cc4cc(-c5ccnc(N)n5)ccc4o3)NC(=O)NC1=O)C2 [Compound 2245]
0.433 | COc1ccc2c(c1)C(=O)N(C[C@@]1(c3cc4ccc(N)nc4o3)NC(=O)NC1=O)C2 [Compound 2250]
0.385 | COc1ccc2c(c1)C(=O)N(C[C@@]1(c3cc4nc(Nc5c(C)nn(C)c5C)ccc4o3)NC(=O)NC1=O)C2 [Compound 2112]
0.319 | CCC1(c2cc(F)c3oc([C@]4(CN5Cc6ccc(OC)cc6C5=O)NC(=O)NC4=O)cc3c2)NC(=O)NC1=O (stereo partly drawn) [Compound 2210]
0.264 | CCc1cc2oc([C@]3(CN4Cc5ccc(OC)cc5C4=O)NC(=O)NC3=O)cc2cn1 [Compound 2290]
0.25 | CCc1nccc2oc([C@]3(CN4Cc5ccc(OC)cc5C4=O)NC(=O)NC3=O)cc12 [Compound 2289]

Tested on: TNF-α production from human whole blood
Assay: Inhibition of TNF-α production from human whole blood (hWBA), LPS stimulated, ELISA
Assay type: cell-based
Conditions: Homo sapiens, 3.5 h, human whole blood diluted 1:1, LPS stimulated, 3.5 h, TNF-α by ELISA; read-out: hWBA (IC50)

Compound | IC50 [nM]
COc1ccc2c(c1F)C(=O)N(C[C@@]1(c3cc4nc(N5CCCNC5=O)ccc4o3)NC(=O)NC1=O)C2 [Compound 2146] | 507
COc1ccc2c(c1)C(=O)N(C[C@@]1(c3cc4cc(-c5ccccc5O)ncc4o3)NC(=O)NC1=O)C2 [Compound 2241] | ≥ 10000
COc1ccc2c(c1)C(=O)N(C[C@@]1(c3cc4nc(-c5ccncc5)ccc4o3)NC(=O)NC1=O)C2 [Compound 2110] | 351
CCN1CCN(c2ccc3oc([C@]4(CN5Cc6ccc(OC)cc6C5=O)NC(=O)NC4=O)cc3n2)CC1 [Compound 2123] | 136
COc1ccc2c(c1)C(=O)N(C[C@@]1(c3cc4c(C)nc(C)cc4o3)NC(=O)NC1=O)C2 [Compound 2257] | 676
COc1ccc2c(c1)C(=O)N(C[C@@]1(c3cc4cc(-c5ccccc5F)ncc4o3)NC(=O)NC1=O)C2 [Compound 2240] | 3640
COc1ccc2c(c1)C(=O)N(C[C@@]1(c3cc4cc(-c5ccncc5)cnc4o3)NC(=O)NC1=O)C2 [Compound 2255] | 396

Next, values leading:

IC50 [nM] | Compound
144 | COc1ccc2c(c1F)C(=O)N(C[C@@]1(c3cc4nc(N5CCN(C)CC5)ccc4o3)NC(=O)NC1=O)C2 [Compound 2125]
1060 | COc1ccc2c(c1)C(=O)N(C[C@@]1(c3cc4cc(-c5ccnc(N)n5)ccc4o3)NC(=O)NC1=O)C2 [Compound 2245]
218 | COc1ccc2c(c1)C(=O)N(C[C@@]1(c3cc4ccc(N)nc4o3)NC(=O)NC1=O)C2 [Compound 2250]
533 | COc1ccc2c(c1)C(=O)N(C[C@@]1(c3cc4nc(Nc5c(C)nn(C)c5C)ccc4o3)NC(=O)NC1=O)C2 [Compound 2112]
232 | CCC1(c2cc(F)c3oc([C@]4(CN5Cc6ccc(OC)cc6C5=O)NC(=O)NC4=O)cc3c2)NC(=O)NC1=O (stereo partly drawn) [Compound 2210]

Same assay, conditions: Homo sapiens, LPS-stimulated human whole blood, TNF-α by ELISA; read-out: hWBA (IC50)

Compound | IC50 [nM]
COc1ccc2c(c1F)C(=O)N(C[C@@]1(c3cc4cc(C5(C)NC(=O)NC5=O)c(F)cc4o3)NC(=O)NC1=O)C2 (stereo partly drawn) [Compound 1316] | 104
COc1ccc2c(c1)C(=O)N(C[C@@]1(c3cc4nc(NS(=O)(=O)C5CC5)ccc4o3)NC(=O)NC1=O)C2 [Compound 1938] | 518
COc1ccc2c(c1F)C(=O)N(C[C@@]1(c3cc4ncc(F)cc4o3)NC(=O)NC1=O)C2 [Compound 1311] | 297
COc1ccc2c(c1F)C(=O)N(C[C@@]1(c3cc4nc(C)c(F)cc4o3)NC(=O)NC1=O)C2 [Compound 1312] | 911

Continued, values first:

IC50 [nM] | Compound
1740 | CCOC(=O)C1CCCN(c2ccc3oc([C@]4(CN5Cc6ccc(OC)cc6C5=O)NC(=O)NC4=O)cc3n2)C1 (stereo partly drawn) [Compound 1516]
100 | COc1ccc2c(c1F)C(=O)N(C[C@@]1(c3cc4nc(C5(C)NC(=O)NC5=O)ccc4o3)NC(=O)NC1=O)C2 (mixture of isomers) [Compound 1901]

Same assay, conditions: Homo sapiens, human whole blood diluted 1:1, LPS stimulated, TNF-α by ELISA; read-out: hWBA (IC50)

Compound | IC50 [nM]
COc1ccc2c(c1)C(=O)N(C[C@@]1(c3cc4cnc(-c5cn[nH]c5)cc4o3)NC(=O)NC1=O)C2 [Compound 2286] | 184
COc1ccc2c(c1)C(=O)N(C[C@@]1(c3cc4cnc(C)nc4o3)NC(=O)NC1=O)C2 [Compound 2309] | 624
COc1ccc2c(c1)C(=O)N(C[C@@]1(c3cc4nc(NS(=O)(=O)C5CC5)ccc4o3)NC(=O)NC1=O)C2 [Compound 2318] | 518

Other lines, results leading:

IC50 [nM] | Compound
198 | COc1ccc2c(c1)C(=O)N(C[C@@]1(c3cc4c(C)nccc4o3)NC(=O)NC1=O)C2 [Compound 2284]
643 | CCc1cc2oc([C@]3(CN4Cc5ccc(OC)cc5C4=O)NC(=O)NC3=O)cc2cn1 [Compound 2290]
358 | CCc1nccc2oc([C@]3(CN4Cc5ccc(OC)cc5C4=O)NC(=O)NC3=O)cc12 [Compound 2289]

Tested on: not listed separately
Assay: Area under the curve determinations of plasma levels in rats (rrAUC), oral 10 mg/kg
Assay type: in vivo
Conditions: blood collected 0.5-6 h post-dosing

RR AUC (rapid rat AUC, rrAUC) [µM·h] | Compound
0.015 | COc1ccc2c(c1)C(=O)N(C[C@@]1(c3cc4nc(NS(=O)(=O)C5CC5)ccc4o3)NC(=O)NC1=O)C2 [Compound 2318]

Same assay, conditions: rat, plasma 0.5-6 h, read-out: RR AUC (rapid rat AUC, rrAUC)

Compound | AUC [µM·h]
COc1ccc2c(c1F)C(=O)N(C[C@@]1(c3cc4cc(C5(C)NC(=O)NC5=O)c(F)cc4o3)NC(=O)NC1=O)C2 (stereo partly drawn) [Compound 1316] | 45.7
COc1ccc2c(c1)C(=O)N(C[C@@]1(c3cc4nc(NS(=O)(=O)C5CC5)ccc4o3)NC(=O)NC1=O)C2 [Compound 1938] | 0.015
COc1ccc2c(c1F)C(=O)N(C[C@@]1(c3cc4ncc(F)cc4o3)NC(=O)NC1=O)C2 [Compound 1311] | 14.6
COc1ccc2c(c1F)C(=O)N(C[C@@]1(c3cc4nc(C)c(F)cc4o3)NC(=O)NC1=O)C2 [Compound 1312] | 38.3

Further lines, results first:

AUC [µM·h] | Compound
0.041 | CCOC(=O)C1CCCN(c2ccc3oc([C@]4(CN5Cc6ccc(OC)cc6C5=O)NC(=O)NC4=O)cc3n2)C1 (stereo partly drawn) [Compound 1516]
1.07 | COc1ccc2c(c1F)C(=O)N(C[C@@]1(c3cc4nc(C5(C)NC(=O)NC5=O)ccc4o3)NC(=O)NC1=O)C2 (mixture of isomers) [Compound 1901]

Same assay, conditions: rat, plasma 0.5-6 h post-dosing, read-out: RR AUC (rapid rat AUC, rrAUC)

Compound | AUC [µM·h]
COc1ccc2c(c1F)C(=O)N(C[C@@]1(c3cc4nc(N5CCCNC5=O)ccc4o3)NC(=O)NC1=O)C2 [Compound 2146] | 0.522
COc1ccc2c(c1)C(=O)N(C[C@@]1(c3cc4cc(-c5ccccc5O)ncc4o3)NC(=O)NC1=O)C2 [Compound 2241] | 1.39
COc1ccc2c(c1)C(=O)N(C[C@@]1(c3cc4nc(-c5ccncc5)ccc4o3)NC(=O)NC1=O)C2 [Compound 2110] | 10.5
CCN1CCN(c2ccc3oc([C@]4(CN5Cc6ccc(OC)cc6C5=O)NC(=O)NC4=O)cc3n2)CC1 [Compound 2123] | 0.727
COc1ccc2c(c1)C(=O)N(C[C@@]1(c3cc4c(C)nc(C)cc4o3)NC(=O)NC1=O)C2 [Compound 2257] | 4.23
COc1ccc2c(c1)C(=O)N(C[C@@]1(c3cc4cc(-c5ccccc5F)ncc4o3)NC(=O)NC1=O)C2 [Compound 2240] | 12.8
COc1ccc2c(c1)C(=O)N(C[C@@]1(c3cc4cc(-c5ccncc5)cnc4o3)NC(=O)NC1=O)C2 [Compound 2255] | 0.527

The next lines start with the values.

AUC [µM·h] | Compound
1.52 | COc1ccc2c(c1F)C(=O)N(C[C@@]1(c3cc4nc(N5CCN(C)CC5)ccc4o3)NC(=O)NC1=O)C2 [Compound 2125]
6.03 | COc1ccc2c(c1)C(=O)N(C[C@@]1(c3cc4cc(-c5ccnc(N)n5)ccc4o3)NC(=O)NC1=O)C2 [Compound 2245]
0.391 | COc1ccc2c(c1)C(=O)N(C[C@@]1(c3cc4ccc(N)nc4o3)NC(=O)NC1=O)C2 [Compound 2250]
0.019 | COc1ccc2c(c1)C(=O)N(C[C@@]1(c3cc4nc(Nc5c(C)nn(C)c5C)ccc4o3)NC(=O)NC1=O)C2 [Compound 2112]
0.018 | CCC1(c2cc(F)c3oc([C@]4(CN5Cc6ccc(OC)cc6C5=O)NC(=O)NC4=O)cc3c2)NC(=O)NC1=O (stereo partly drawn) [Compound 2210]

Same assay, conditions: rat, plasma, blood collected 0.5-6 h post-dosing, read-out: RR AUC (rapid rat AUC, rrAUC)

Compound | AUC [µM·h]
COc1ccc2c(c1)C(=O)N(C[C@@]1(c3cc4cnc(-c5cn[nH]c5)cc4o3)NC(=O)NC1=O)C2 [Compound 2286] | 0.046
COc1ccc2c(c1)C(=O)N(C[C@@]1(c3cc4cnc(C)nc4o3)NC(=O)NC1=O)C2 [Compound 2309] | 18

Second part, the molecule after the results:

AUC [µM·h] | Compound
2.8 | COc1ccc2c(c1)C(=O)N(C[C@@]1(c3cc4c(C)nccc4o3)NC(=O)NC1=O)C2 [Compound 2284]
20.3 | CCc1cc2oc([C@]3(CN4Cc5ccc(OC)cc5C4=O)NC(=O)NC3=O)cc2cn1 [Compound 2290]
3.56 | CCc1nccc2oc([C@]3(CN4Cc5ccc(OC)cc5C4=O)NC(=O)NC3=O)cc12 [Compound 2289]
